According to US20200172966A1 (YAMAGUCHI UNIVERSITY, priority 2015, published 2020):

Test: incidence of side effect (hematologic toxicity) by single nucleotide polymorphism genotype in Japanese patients with colon cancer who had received irinotecan
Assay type: in vivo, human
Procedure: By using TaqMan SNP Assays Human (manufactured by Applied Biosystems, Inc.) and LightCycler (R) 480 Probe Master (manufactured by Roche Diagnostics, Inc.), Universal ProbeLibrary (manufactured by Roche Diagnostics, Inc.), and LightCycler 480 System II (manufactured by Roche Diagnostics, Inc.), 10 ng of genomic DNA was subjected to genotyping. After incubation at 95° C. for 10 min, the sample was subjected to PCR amplification with 55 cycles for rs1980576, rs2272761, and rs9425343, 45 cycles for rs12577167, rs7265854, and rs1135640, or 40 cycles for rs1547 (1 cycle consisted of 92° C. for 15 sec and 60° C. for 60 sec). The fluorescence emitted from the PCR products were measured.
The “Odds ratio” in Table 3 refers to an odds ratio indicating the occurrence of a side effect as calculated using a Fisher's exact test on a single nucleotide polymorphism being homozygous for a wild-type or homozygous for a variant type.
The term (P value/C.-A.) in Table 4 is the same as in Table 2. […] The term “Odds ratio” in Table 5 is the same as in Table 3.

[1] = N = 72, homozygous UGT1A1*28 excluded (Table 5), ACOX1 rs1135640 G/G
[2] = N = 72, homozygous UGT1A1*28 excluded, ACOX1 rs1135640 C/C, C/G
[3] = N = 72, homozygous UGT1A1*28 excluded, APCDD1L rs1980576 A/A
[4] = N = 72, homozygous UGT1A1*28 excluded, APCDD1L rs1980576 A/A, A/G
[5] = N = 72, homozygous UGT1A1*28 excluded, APCDD1L rs1980576 A/G, G/G
[6] = N = 72, homozygous UGT1A1*28 excluded, APCDD1L rs1980576 G/G
[7] = N = 72, homozygous UGT1A1*28 excluded, APCDD1L rs7265854 C/C
[8] = N = 72, homozygous UGT1A1*28 excluded, APCDD1L rs7265854 T/T, T/C
[9] = N = 72, homozygous UGT1A1*28 excluded, EDEM3 rs9425343 T/G, G/G
[10] = N = 72, homozygous UGT1A1*28 excluded, EDEM3 rs9425343 T/T
[11] = N = 72, homozygous UGT1A1*28 excluded, R3HCC1 rs2272761 G/A, A/A
[12] = N = 72, homozygous UGT1A1*28 excluded, R3HCC1 rs2272761 G/G
[13] = N = 72, homozygous UGT1A1*28 with reduced amount of irinotecan excluded (Table 4), ACOX1 rs1135640 C/C
[14] = N = 72, homozygous UGT1A1*28 with reduced amount of irinotecan excluded (Table 4), ACOX1 rs1135640 C/G
[15] = N = 72, homozygous UGT1A1*28 with reduced amount of irinotecan excluded (Table 4), ACOX1 rs1135640 G/G
[16] = N = 73, homozygous UGT1A1*28 with reduced amount of irinotecan excluded, APCDD1L rs1980576 A/A
[17] = N = 73, homozygous UGT1A1*28 with reduced amount of irinotecan excluded, APCDD1L rs1980576 A/G
[18] = N = 73, homozygous UGT1A1*28 with reduced amount of irinotecan excluded, APCDD1L rs1980576 G/G
[19] = N = 73, homozygous UGT1A1*28 with reduced amount of irinotecan excluded, APCDD1L rs7265854 A/A
[20] = N = 73, homozygous UGT1A1*28 with reduced amount of irinotecan excluded, APCDD1L rs7265854 A/G
[21] = N = 73, homozygous UGT1A1*28 with reduced amount of irinotecan excluded, APCDD1L rs7265854 G/G
[22] = N = 73, homozygous UGT1A1*28 with reduced amount of irinotecan excluded, CSMD2 rs474474 A/A
[23] = N = 73, homozygous UGT1A1*28 with reduced amount of irinotecan excluded, CSMD2 rs474474 A/G
[24] = N = 73, homozygous UGT1A1*28 with reduced amount of irinotecan excluded, CSMD2 rs474474 G/G
[25] = N = 73, homozygous UGT1A1*28 with reduced amount of irinotecan excluded, EDEM3 rs9425343 G/G
[26] = N = 73, homozygous UGT1A1*28 with reduced amount of irinotecan excluded, EDEM3 rs9425343 T/G
[27] = N = 73, homozygous UGT1A1*28 with reduced amount of irinotecan excluded, EDEM3 rs9425343 T/T
[28] = N = 73, homozygous UGT1A1*28 with reduced amount of irinotecan excluded, GATA2 rs2335052 A/A
[29] = N = 73, homozygous UGT1A1*28 with reduced amount of irinotecan excluded, GATA2 rs2335052 G/A
[30] = N = 73, homozygous UGT1A1*28 with reduced amount of irinotecan excluded, GATA2 rs2335052 G/G
[31] = N = 73, homozygous UGT1A1*28 with reduced amount of irinotecan excluded, MKKS rs1547 C/C
[32] = N = 73, homozygous UGT1A1*28 with reduced amount of irinotecan excluded, MKKS rs1547 C/T
[33] = N = 73, homozygous UGT1A1*28 with reduced amount of irinotecan excluded, MKKS rs1547 T/T
[34] = N = 73, homozygous UGT1A1*28 with reduced amount of irinotecan excluded, OR51I2 rs12577167 A/A
[35] = N = 73, homozygous UGT1A1*28 with reduced amount of irinotecan excluded, OR51I2 rs12577167 A/G
[36] = N = 73, homozygous UGT1A1*28 with reduced amount of irinotecan excluded, OR51I2 rs12577167 G/G
[37] = N = 73, homozygous UGT1A1*28 with reduced amount of irinotecan excluded, R3HCC1 rs2272761 A/A
[38] = N = 73, homozygous UGT1A1*28 with reduced amount of irinotecan excluded, R3HCC1 rs2272761 G/A
[39] = N = 73, homozygous UGT1A1*28 with reduced amount of irinotecan excluded, R3HCC1 rs2272761 G/G

CCc1c2c(nc3ccc(OC(=O)N4CCC(N5CCCCC5)CC4)cc13)-c1cc3c(c(=O)n1C2)COC(=O)[C@]3(O)CC [irinotecan, 1,4′-Bipiperidine-1′-carboxylic acid (S)-4,11-diethyl-3,4,12,14-tetrahydro-4-hydroxy-3,14-dioxo-1H-pyrano[3′,4′:6,7]indolizino[1,2-b]quinolin-9-yl ester]
Toxicity No [1]: 21 | Toxicity Yes [1]: 8 | Toxicity No [2]: 17 | Toxicity Yes [2]: 26 | Toxicity No [3]: 16 | Toxicity Yes [3]: 6 | Toxicity No [4]: 35 | Toxicity Yes [4]: 26 | Toxicity No [5]: 22 | Toxicity Yes [5]: 28 | Toxicity No [6]: 3 | Toxicity Yes [6]: 8 | Toxicity No [7]: 8 | Toxicity Yes [7]: 1 | Toxicity No [8]: 30 | Toxicity Yes [8]: 33 | Toxicity No [9]: 31 | Toxicity Yes [9]: 21 | Toxicity No [10]: 7 | Toxicity Yes [10]: 13 | Toxicity No [11]: 32 | Toxicity Yes [11]: 34 | Toxicity No [12]: 6 | Toxicity Yes [12]: 0 | Toxicity No [13]: 3 | Toxicity Yes [13]: 8 | Toxicity No [14]: 14 | Toxicity Yes [14]: 18 | Toxicity No [15]: 21 | Toxicity Yes [15]: 8 | Toxicity No [16]: 16 | Toxicity Yes [16]: 6 | Toxicity No [17]: 20 | Toxicity Yes [17]: 20 | Toxicity No [18]: 3 | Toxicity Yes [18]: 8 | Toxicity No [19]: 13 | Toxicity Yes [19]: 18 | Toxicity No [20]: 18 | Toxicity Yes [20]: 15 | Toxicity No [21]: 8 | Toxicity Yes [21]: 1 | Toxicity No [22]: 16 | Toxicity Yes [22]: 22 | Toxicity No [23]: 18 | Toxicity Yes [23]: 8 | Toxicity No [24]: 5 | Toxicity Yes [24]: 4 | Toxicity No [25]: 10 | Toxicity Yes [25]: 5 | Toxicity No [26]: 21 | Toxicity Yes [26]: 16 | Toxicity No [27]: 8 | Toxicity Yes [27]: 13 | Toxicity No [28]: 5 | Toxicity Yes [28]: 5 | Toxicity No [29]: 20 | Toxicity Yes [29]: 12 | Toxicity No [30]: 14 | Toxicity Yes [30]: 17 | Toxicity No [31]: 20 | Toxicity Yes [31]: 10 | Toxicity No [32]: 16 | Toxicity Yes [32]: 19 | Toxicity No [33]: 3 | Toxicity Yes [33]: 5 | Toxicity No [34]: 19 | Toxicity Yes [34]: 23 | Toxicity No [35]: 14 | Toxicity Yes [35]: 10 | Toxicity No [36]: 6 | Toxicity Yes [36]: 1 | Toxicity No [37]: 22 | Toxicity Yes [37]: 24 | Toxicity No [38]: 11 | Toxicity Yes [38]: 10 | Toxicity No [39]: 6 | Toxicity Yes [39]: 0 | irinotecan side effect observed (of 68 cases considered to have a low risk of a side effect in view of the UGT1A gene polymorphisms): 29 cases
